Each structure is given as a SMILES string. Where a name gives a salt, the structure may show the parent alone. Bounds are passed on as bounds.

As usually defined, the IC50 is the midpoint of a concentration-inhibition curve.

The subject of test [1] is RS4; 11 leukaemia tumour line. The test is described as follows: In vitro cytotoxicity, Microculture Tetrazolium Assay (MTT). The test is classed as cell-based. Particulars: 11 cells, 48 hours exposure. Here is the method: The cytotoxicity studies were carried out on the RS4; 11 leukaemia tumour line.
The cells are distributed onto microplates and exposed to the test compounds for 48 hours.
The cell viability is then quantified by a colorimetric assay, the Microculture Tetrazolium Assay (Cancer Res., 1987, 47, 939-942).

The next test concerns the target Bcl-2 protein (histag-Bcl-2, UniProtKB P10415) (Homo sapiens, UniProt P10415). The test is described as follows: Inhibition of Bcl-2 by the fluorescence polarisation technique. Particulars: for IC50: fluorescence polarisation, 2 hours incubation, read-out: IC50 (μM) Bcl-2 FP. The test is classed as binding. Here is the method:
The fluorescence polarisation tests were carried out on microplates (384 wells). The Bcl-2 protein, labelled (histag-Bcl-2 such that Bcl-2 corresponds to the UniProtKB® primary accession number: P10415), at a final concentration of 5×10^−9M, is mixed with a fluorescent peptide (Fluorescein-REIGAQLRRMADDLNAQY), at a final concentration of 1.00×10^−9M in a buffer solution (Hepes 10 mM, NaCl 150 mM, Tween20 0.05%, pH 7.4), in the presence or absence of increasing concentrations of test compounds. After incubation for 2 hours, the fluorescence polarisation is measured.
In general terms: Polarisation of emitted light reports the rotation of a fluorescent probe.

Chain of Bcl-2 protein (P10415 whole entry): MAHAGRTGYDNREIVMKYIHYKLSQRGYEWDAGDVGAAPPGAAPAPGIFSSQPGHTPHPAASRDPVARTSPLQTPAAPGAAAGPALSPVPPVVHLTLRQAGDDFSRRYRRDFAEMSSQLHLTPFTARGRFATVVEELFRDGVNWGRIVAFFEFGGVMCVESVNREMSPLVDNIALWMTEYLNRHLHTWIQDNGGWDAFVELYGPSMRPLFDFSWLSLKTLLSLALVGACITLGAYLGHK

Regarding `Cc1c2cc(n1C)-c1cc(Cl)ccc1C(=O)N1Cc3cccc(c3C1)OCCc1c(cnn1C)N(c1ccc(O)cc1)C2=O` [Example 24, 11-Chloro-4-(4-hydroxyphenyl)-1,7,8-trimethyl-1,4,22,23-tetrahydro-14H,16H-15,17-methano-6,9-(metheno)dibenzo[b,g]pyrazolo[4,3-o][1,5,10,14]oxatriaza-cyclooctadecine-5,14(8H)-dione], the half-maximal inhibitory concentration (IC50) in test [1] (Homo sapiens, RS4-11, 48 h) was found to be 106 nM; at Bcl-2 protein, 0.0149 µM.

For `Cc1c2cc(n1C)-c1cc(Cl)ccc1C(=O)N1CCc3c(cccc3OCCOc3cccc(c3)N(c3ccc(O)cc3)C2=O)C1` [Example 1, 6-Chloro-14-(4-hydroxyphenyl)-10,11-dimethyl-20,23-dioxa-1,10,14-triazahexacyclo[26.3.1.1˜9,12˜.1˜15,19−.0˜3,8˜.0˜24.29˜]tetratriaconta-3,5,7,9(34),11,15(3.3),16,18,24,26,28-undecaene-2,13-dione], the 50% inhibitory concentration (IC50) stood at 107 nM in test [1] (Homo sapiens, RS4-11, 48 h) and 0.0067 µM at Bcl-2 protein.

Turning to `Cc1c2cc(n1C)-c1cc(Cl)ccc1C(=O)N1CCc3c(cccc3OCCc3c(cnn3C3CCOC3)N(c3ccc(O)cc3)C2=O)C1` (stereo not drawn) [Example 23, 11-Chloro-4-(4-hydroxyphenyl)-7,8-dimethyl-1-(tetrahydrofuran-3-yl)-1,4,16,17,23,24-hexahydro-14H-15,18-methano-6,9-(metheno)dibenzo[l,r]pyrazolo[3,4-d][1,6,10,15]oxatriazacyclononadecine-5,14(8H)-dione], the IC50 in test [1] (Homo sapiens, RS4-11, 48 h) came to 73.3 nM; on Bcl-2 protein, 0.0143 µM.

Take `Cc1c2cc(n1C)-c1cc(Cl)ccc1C(=O)N1CCc3c(cccc3OCCCOc3cccc(c3)N(c3ccc(O)cc3)C2=O)C1` [Example 2, 6-Chloro-14-(4-hydroxyphenyl)-10,11-dimethyl-20,24-dioxa-1,10,14-triazahexacyclo[27.3.1.1˜9,12˜.1˜15,19˜.0˜3,8˜.0˜25,30˜]pentatriaconta-3,5,7,9(35),11,15(34),16,18,25,27,29-undecaene-2,13-dione]: the IC50 in test [1] (Homo sapiens, RS4-11, 48 h) was 179 nM; at Bcl-2 protein it was 0.0044 µM.

As to `Cc1c2cc(n1C)-c1cc(Cl)ccc1C(=O)N1Cc3cccc(c3CC1CN1CCOCC1)OCCCc1c(cnn1C)N(c1ccc(O)cc1)C2=O` (stereo not drawn) [Example 17, 11-Chloro-4-(4-hydroxyphenyl)-1,7,8-trimethyl-16-(morpholin-4-ylmethyl)-4,16,17,23,24,25-hexahydro-1H,14H-15,18-methano-6,9-(metheno)dibenzo-[b,h]pyrazolo[4,3-p][1,6,11,15]oxatriazacycloicosine-5,14(8H)-dione], the IC50 in test [1] (Homo sapiens, RS4-11, 48 h) is 62.8 nM; at Bcl-2 protein, 0.0123 µM.

On to `Cc1c2cc(n1C)-c1cc(Cl)ccc1C(=O)N1CCc3c(cccc3OCCOc3c(cnn3C)N(c3ccc(O)cc3)C2=O)C1` [Example 21, 11-Chloro-4-(4-hydroxyphenyl)-1,7,8-trimethyl-1,4,16,17,23,24-hexahydro-14H-15,18-methano-6,9-(metheno)dibenzo[m,s]pyrazolo[3,4-e][1,4,7,11,16]dioxa-triazacycloeicosin-5,14(8H)-dione], for which the IC50 came out at 131 nM in test [1] (Homo sapiens, RS4-11, 48 h) and 0.0148 µM at Bcl-2 protein.

Regarding `Cc1c(N2C(=O)c3cc(n(C)c3C)-c3ccccc3C(=O)N3CCC(CCOc4cc(O)ccc42)CC3)cc(C#N)n1C` [Example 28, 4-[3-Hydroxy-18,19-dimethyl-12,21-dioxo-7,8,9,10,18,21-hexahydro-6H,12H,22H-8,11-ethano-20,17-(metheno)dibenzo[b,j][1,4,8,13]oxatriazacycloocta-decin-22-yl]-1,5-dimethyl-1H-pyrrole-2-carbonitrile], the concentration for half-maximal inhibition (IC50) worked out at 401 nM in test [1] (Homo sapiens, RS4-11, 48 h) and 0.0288 µM on Bcl-2 protein.

As to `Cc1c2cc(n1C)-c1cc(Cl)ccc1CN1CCc3c(cccc3OCCc3c(cnn3C)N(c3ccc(O)cc3)C2=O)C1` [Example 10, 11-Chloro-4-(4-hydroxyphenyl)-1,7,8-trimethyl-1,4,16,17,23,24-hexahydro-14H-15,18-methano-6,9-(metheno)dibenzo[l,r]pyrazolo[3,4-d]-[1,6,10,15]oxatriazacyclononadecin-5(8H)-one hydrochloride], the IC50 was more than 300 nM in test [1] (Homo sapiens, RS4-11, 48 h) and 0.299 µM at Bcl-2 protein.

With `Cc1c2cc(n1C)-c1cc(Cl)ccc1C(=O)N1Cc3cccc(c3CC1C)OCCCc1c(cc(C#N)n1C)N(c1ccc(O)cc1)C2=O` (single isomer, unassigned) [Example 26, (16S or R)-11-Chloro-4-(4-hydroxyphenyl)-1,7,8,16-tetramethyl-5,14-dioxo-4,5,8,16,17,23,24,25-octahydro-1H,14H-15,18-methano-6,9-(metheno)-dibenzo[b,h]pyrrolo[3,2-p][1,6,11,15]oxatriazacycloicosine-2-carbonitrile], the half-maximal inhibitory concentration (IC50) in test [1] was determined as 1.66 nM; at Bcl-2 protein, 0.0041 µM.

Turning to `Cc1c2cc(n1C)-c1cc(Cl)ccc1C(=O)N1CCc3c(cccc3OCCN(C)CCOc3ncc(cn3)N(c3ccc(O)cc3)C2=O)C1` [Example 44, 10-Chloro-2-(4-hydroxyphenyl)-5,6,27-trimethyl-24,30-dioxa-2,6,15,27,32,35-hexaazahexacyclo[29.2.2.1˜4,7˜.1˜15,19˜.0˜8,13˜.0˜18,23˜]hepta-triaconta-1(33),4,7(37),8,10,12,18,20,22,31,34-undecaene-3,14-dione], the half-maximal inhibitory concentration (IC50) amounted to 35.4 nM in test [1] (Homo sapiens, RS4-11, 48 h) and 0.00497 µM at Bcl-2 protein.

`Cc1c2cc(n1C)-c1cc(Cl)ccc1C(=O)N1CCc3c(cccc3OCCCCn3cc(cn3)N(c3ccc(O)cc3)C2=O)C1` [Example 15, Chloro-14-(4-hydroxyphenyl)-10,11-dim ethyl-23-oxa-1,10,14,17,18-pentaazahexacyclo[26.3.1.1˜9,12˜.1˜15,18˜.0˜3,8˜.0˜24,29˜]tetratriaconta-3,5,7, 9(34),11,15(33),16,24,26,28-deca ene-2,13-dione]: the IC50 in test [1] (Homo sapiens, RS4-11, 48 h) was 11.6 nM; at Bcl-2 protein, 0.0037 µM.

On to `Cc1c2cc(n1C)-c1cc(Cl)ccc1C(=O)N1Cc3cccc(c3CC1C)OCCCc1c(cc(C#N)n1C)N(c1ccc(O)cc1)C2=O` (single isomer, unassigned) [Example 25, (16R or S)-11-Chloro-4-(4-hydroxyphenyl)-1,7,8,16-tetramethyl-5,14-dioxo-4,5,8,16,17,23,24,25-octahydro-1H,14H-15,18-methano-6,9-(metheno)dibenzo[b,h]-pyrrolo[3,2-p][1,6,11,15]oxatriazacycloicosine-2-carbonitrile], for which the values for the IC50 (in test [1]; at Bcl-2 protein) were 809 nM and 0.268 µM, respectively.

For `Cc1c2cc(n1C)-c1cc(Cl)ccc1C(=O)N1CCc3c(cccc3OCCCOc3cc(C#N)cc(c3)N(c3ccc(O)cc3)C2=O)C1` [Example 5, 6-Chloro-14-(4-hydroxyphenyl)-10,11-dimethyl-2,13-dioxo-20,24-dioxa-1,10,14-triazahexacyclo[27.3.1.1˜9,12˜.1˜15,19˜.0˜3,8˜.0˜25,30˜]pentatriaconta-3,5,7,9(35),11,15(34),16,18,25,27,29-undecaene-17-carbonitrile], the IC50 in test [1] (Homo sapiens, RS4-11, 48 h) was 21.4 nM; on Bcl-2 protein, 0.00205 µM.

For the molecule `Cc1c2cc(n1C)-c1cc(Cl)ccc1C(=O)N1CCc3c(cccc3OCCCCCCOc3ncc(cn3)N(c3ccc(O)cc3)C2=O)C1` [Example 39, 10-Chloro-2-(4-hydroxyphenyl)-5,6-dimethyl-24,31-dioxa-2,6,15,33,36-pentaazahexacyclo[30.2.2.1˜4,7˜.1˜15,19˜.0˜8,13˜.0˜18,23˜]octatriaconta-1(34),4,7(38),8,10,12,18,20,22,32,35-undecuene-3,14-dione], the concentration for half-maximal inhibition (IC50) in test [1] (Homo sapiens, RS4-11, 48 h) turned out to be 149 nM; at Bcl-2 protein it was 0.0768 µM.

`Cc1c2cc(n1C)-c1cc(Cl)ccc1C(=O)N1CCc3c(cccc3C1)CCCOc1cc(C#N)cc(c1)N(c1ccc(O)cc1)C2=O` [Example 14, 6-Chloro-14-(4-hydroxyphenyl)-10,11-dimethyl-2,13-dioxo-20-oxa-1,10,14-triazahexacyclo[26.3.1.1˜9,12˜.1˜15,19˜.0˜3,8˜.0˜24,29˜]tetratriaconta-3,5,7,9(34),11,15(33),16,18,24,26,28-undecaene-17-carbonitrile]: the half-inhibitory concentration (IC50) in test [1] (Homo sapiens, RS4-11, 48 h) was found to be 14.6 nM; on Bcl-2 protein, 0.0147 µM.

Take `Cc1c2cc(n1C)-c1cc(Cl)ccc1C(=O)N1CCc3c(cccc3OCCn3c(C)ncc(c3=O)N(c3ccc(O)cc3)C2=O)C1` [Example 31, 6-Chloro-14-(4-hydroxyphenyl)-10,11,18-trimethyl-22-oxa-1,10,14,17,19-pentaazahexacyclo[25.3.1.1˜9,12˜.1˜15,19˜.0˜3,8˜.0˜23,28˜]tritriaconta-3,5,7,9(33),11,15,17,23,25,27-decaene-2,13,32-trione]: the concentration for half-maximal inhibition (IC50) in test [1] (Homo sapiens, RS4-11, 48 h) came out at 1330 nM. Also, at Bcl-2 protein (@1.1 μM), the “Bcl-2 FP, % at given concentration” value is reported as 74.55% @1.1 μM.

In the case of `Cc1c2cc(n1C)-c1cc(Cl)ccc1CN1CCc3c(cccc3OCCCc3c(cnn3C)N(c3ccc(O)cc3)C2=O)C1` [Example 11, 11-Chloro-4-(4-hydroxyphenyl)-1,7,8-trimethyl-4,16,17,23,24,25-hexahydro-1H,14H-15,18-methano-6,9-(metheno)dibenzo[b,h]pyrazolo[4,3-p]-[1,6,11,15]oxatriazacycloicosin-5(8H)-one], the IC50 in test [1] (Homo sapiens, RS4-11, 48 h) was found to be 448 nM; on Bcl-2 protein, 0.157 µM.

With `Cc1c(N2C(=O)c3cc(n(C)c3C)-c3cc(Cl)ccc3C(=O)N3CCC(CCOc4cc(O)ccc42)CC3)cc(C#N)n1C` [Example 27, 4-[15-Chloro-3-hydroxy-18,19-dimethyl-12,21-dioxo-7,8,9,10,18,21-hexahydro-6H,12H,22H-8,11-ethano-20,17-(metheno)dibenzo[b,j][1,4,8,13]oxatriaza-cyclooctadecin-22-yl]-1,5-dimethyl-1H-pyrrole-2-carbonitrile], the 50% inhibitory concentration (IC50) in test [1] (Homo sapiens, RS4-11, 48 h) is 104 nM; at Bcl-2 protein it was 0.0098 µM.
